# Reference: patent US20220119446A1, “BIOMARKERS AND TREATMENT OF NEURONAL INJURY AND NEURODEGENERATION” (Board of Supervisons of Louisiana State University and …, priority 2018, published 2022)
# “Also recorded” adds a separate entry of the source.
# Key:
# Type in all cases: cell-based, human
# ARPE-19 cells and hpRPE = assay: Apoptosis by Hoechst staining in RPE cells under UOS
# Procedure: ARPE-19 cells, can be plated and grown in DMEM/F-12 containing 10% FBS and 1× penicillin/streptomycin at 37° C., 5% CO2, 99% relative humidity for 24 h. […] 15-LOX-1 deficient cells can be maintained in the same medium as ARPE-19 with the addition of 500 μg/mL Geneticin (Life Technologies Corporation, Carlsbad, Calif.). Transfection can be performed in all cases using Lipofectamine 2000 (Life Technologies Corporation, Carlsbad, Calif.) following the manufacturer's recommendations. […] Experiments with transfection efficiency that yielded less than 80% can be discarded. For siRNA, we used 6 μl of Lipofectamine 2000 per 50 pmol of siRNA per mL of incubation medium, and, for plasmids, we used 6 μl of Lipofectamine 2000 per 2 μg of plasmid per mL of incubation medium. Cells can be incubated for 5 hours at 37° C., 5% CO2 and 99% relative humidity. […] When siRNA/plasmid co-transfection is required, siRNA and plasmid-carrying transfection mixes can be prepared separately and added one after the other in the same well. Oxidative stress treatments can be performed using 600 (ARPE-19) or 1600 (hRPE) μM H2O2, along with 10 ng/mL TNFα, for the required time indicated in each experiment. The treatment we used employed the low serum (0.5% serum) without hFGF. Treatment to induce uncompensated oxidative stress (UOS) can be performed after 8 hours of low-serum medium incubation unless specifically noted. Wnt5a, Wnt3a or NPD1 can be added immediately before induction of UOS. In the secretion experiments, Pitstop 2 can be added to the medium 2 hours before harvesting.
# (§1) Immunostaining can be performed in 8-well slide chambers and the Hoechst staining in 24-well plates. […] Briefly, cells can be fixed using 4% paraformaldehyde in PBS 1× for 20 min at room temperature or overnight at 4° C. After three washes with PBS, cells can be permeabilized using 0.1% Triton™ X-100 for five minutes and blocked using 10% normal serum and 1% BSA for one hour. […] Hoechst staining can be performed using same protocol of fixation. In one embodiment, permeabilization is done using methanol for 20 min at room temperature. […] Dying cells can be identified by size (0 to 50 pixels), intensity threshold, and circularity. The ratio of hyperpyknotic cells over the total can be calculated for nine randomly chosen fields per sample obtained from three independent wells per experiment. Each experiment can be repeated at least three times to confirm the findings.
# ARPE-19 cells, were plated and grown in DMEM/F-12 containing 10% FBS and 1× penicillin/streptomycin at 37° C., 5% CO2, 99% relative humidity for 24 h. […] 15-LOX-1 deficient cells were maintained in the same medium as ARPE-19 with the addition of 500 μg/mL Geneticin (Life Technologies Corporation). Transfection was performed in all cases using Lipofectamine 2000 (Life Technologies Corporation) following the manufacturer's recommendations. […] Experiments with transfection efficiency that yielded less than 80% were discarded. For siRNA, we used 6 μl of Lipofectamine 2000 per 50 pmol of siRNA per mL of incubation medium, and, for plasmids, we used 6 μl of Lipofectamine 2000 per 2 μg of plasmid per mL of incubation medium. Cells were incubated for 5 hours at 37° C., 5% CO2 and 99% relative humidity. […] When siRNA/plasmid co-transfection was required, siRNA and plasmid-carrying transfection mixes were prepared separately and added one after the other in the same well. […] The treatment we used employed the low serum (0.5% serum) without hFGF. Treatment to induce uncompensated oxidative stress (UOS) was performed after 8 hours of low-serum medium incubation unless specifically noted. Wnt5a, Wnt3a or NPD1 was added immediately before induction of UOS.
# COX-2 promoter = COX-2 promoter luciferase reporter assay; settings: ARPE-19 cells; 50 ng/ml Wnt5a or 20 ng/ml IL1-β
# Description: (§2) Except TOP/FOP flash, the Luciferase activity can be standardized using a construct expressing GFP constitutively under CMV virus promoter. To assess luciferase activity, cell lysates can be obtained using Passive Lysis Buffer (Promega, Madison, Wis.) and mixed with a luciferase assay reagent (Promegam Madison, Wis.). Chemiluminescence produced by luciferase and fluorescence from GFP can be detected using Appliscan 2.3. Data can be analyzed using SkanIt 2.3 (Thermo Fisher Scientific, Waltham, Mass.).
# A, Design of luciferase reporter assay performed with COX-2 promoter construct. UOS was induced by the addition of 10 ng/ml TNFα and 600 μM H2O2 in ARPE-19 cells. The concentrations of Wnt5a used was 50 ng/ml. Cells were co-transfected with the constructs driving the expression of luciferase and a plasmid that constitutively expressed green fluorescent protein for standardization. Luciferase activity is denoted in luciferase activity units (LUC) and standardized using GFP fluorescent (GFP). B, Wnt5a and IL-1β effect time course on COX-2 promoter activity. […] Luciferase activity (LUC) was measured in ARPE-19 cells in the presence of 50 ng/ml Wnt5a or 20 ng/ml IL1-β. […] Luciferase activity measured in cells incubated with 50 ng/ml Wnt5a in the presence or absence of 100 nM (+) and 200 nM (++) NPD1.
# NF-κB/p65 = NF-κB/p65 luciferase reporter assay in hpRPE cells; settings: hpRPE under UOS in the presence of Wnt5a 50 ng/ml; NPD1 100 or 200 nM; Pitstop2 25 μM
# Procedure: We asked if Wnt5a activates inflammatory signaling to enhance apoptosis mediated by UOS by assessing COX-2 promoter activation (FIG. 10). […] To compare Wnt5a effects with other cytokines that enhance COX-2 expression, Interleukin-1β (IL-1β) activity was measured. […] To determine if Wnt5a activates NF-κB, hpRPE were transfected with a construct that encompassed three p65 high-affinity binding sites in tandem, driving the expression of the luciferase reporter gene (FIG. 1G). […] To assess whether or not FDZ5 and ROR2 were involved in NF-κB activation by Wnt5a, cells were co-transfected with siRNAs targeting the two receptors (FIG. 11).
# as §2
# Except TOP/FOP flash, the Luciferase activity was standardized using a construct expressing GFP constitutively under CMV virus promoter. To assess luciferase activity, cell lysates were obtained using Passive Lysis Buffer (Promega) and mixed with a luciferase assay reagent (Promega). Chemiluminescence produced by luciferase and fluorescence from GFP was detected using Appliscan 2.3. Data were analyzed using SkanIt 2.3 (Thermo Fisher Scientific).
# Wnt5a/FZD5 = assay: Immunocytochemistry of Wnt5a/FZD5 colocalization and vesicles in hpRPE cells; settings: for number of Wnt5a/FZD5 colocalized vesicles per field: hpRPE, UOS 1600 μM H2O2, 2 hours, +/− 50 ng/ml Wnt5a, no Pitstop2
# Procedure: To ascertain localization and interaction between FZD5 and Wnt5a we incubated hpRPE undergoing UOS with Wnt5a+/−NPD1 or other lipid mediators.
# as §1
# In an embodiment involving early stages of apoptosis, the total number of cells per field is assessed and counted to ensure unbiased observations. […] Settings can be adjusted in the conditions that show higher intensity and can be used throughout the remaining samples. In an embodiment, Pearson's colocalization coefficient (PCC) is obtained using FV1200 analysis software for every field in each experiment, and the mean and SEM are depicted in FIGS. 7-11.
# Immunostaining was performed in 8-well slide chambers and the Hoechst staining in 24 well plates. […] Briefly, cells were fixed using 4% paraformaldehyde in PBS 1× for 20 min at room temperature or overnight at 4° C. After three washes with PBS, cells were permeabilized using 0.1% Triton™ X-100 for five minutes and blocked using 10% normal serum and 1% BSA for one hour. […] Hoechst staining was performed using same protocol of fixation, but permeabilization was done using methanol for 20 min at room temperature. […] Dying cells were identified by size (0 to 50 pixels), intensity threshold and circularity. The ratio of hyperpyknotic cells over the total was calculated for nine randomly chosen fields per sample obtained from three independent wells per experiment. Each experiment was repeated at least three times to confirm the findings. In the experiments involving early stages of apoptosis, we assessed the total number of cells per field and counted them to ensure unbiased observations. […] Pearson's colocalization coefficient (PCC) was obtained using FV1200 analysis software for every field in each experiment, and the mean and SEM are depicted in Figures S1-S5. […] IMARIS software analysis was performed building a colocalization channel using the Costes thresholding, and the colocalized elements were analyzed using the spots function using the settings different spots sites, background subtraction and local contrast. The output obtained consisted on a collection of sizes (one per element in each picture) or the mean of the intensity in each spot.
# Wnt5a = assay: Western blot of secreted (sWnt5a) and cellular (cWnt5a) Wnt5a in RPE cells under UOS
# Procedure: To monitor transcription, translation, and secretion of Wnt5a, we performed western blot assays using cellular lysates and medium from hpRPE undergoing UOS+/−NPD1 at different time points. Medium was precipitated using Methanol/Chloroform to bring down all secreted Wnt5a.
# The pellet can be re-suspended and denatured in 100 μl of 2× Laemmli sample buffer (Bio-Rad Laboratories, Hercules, Calif.) at 95° C. for 5 min. MCAo brain tissue and cell samples can be homogenized using RIPA (Thermo Fisher Scientific, Waltham, Mass.) buffer supplemented with protease and phosphatase inhibitor cocktails (Millipore Sigma, Burlington, Mass.). In embodiments, the amount of 30 μg of total protein is loaded in NuPAGE® Novex® 4-12% Bis-Tris precast gels (Life Technologies Corporation, Carlsbad, Calif.) and run at constant 120V for about 1 hour and 20 min. Proteins can be transferred to μm Nitrocellulose membrane using Bio-Rad Trans-Blot® Turbo™ System (Bio-Rad Laboratories, Hercules, Calif.). ECL™ Plex Fluorescent Rainbow Markers (GE Healthcare, Chicago, Ill.) can be used as the ladder for protein's molecular weight. Membranes can be blocked using 5% non-fat dry milk (Bio-Rad Laboratories, Hercules, Calif.) in TBS with 1% Tween® 20 (TBST-10×) (Croda International, Snaith, United Kingdom) for 1 hour and incubated overnight with primary antibodies. Anti-mouse or anti-rabbit secondary antibodies conjugated with Cy3 or Cy5 can be used to visualize the protein of interest. Immunoblots can be documented using LAS 4000 imaging system (GE Healthcare Life Sciences, Marlborough, Mass.). A time course exposition can be produced in each case to prevent quantification of saturated images. In embodiments, densitometry data are obtained using ImageQuant™ TL software (GE Healthcare Life Sciences, Marlborough, Mass.).
# The pellet was re-suspended and denatured in 100 μl of 2× Laemmli sample buffer (Bio-Rad Laboratories) at 95° C. for 5 min. MCAo brain tissue and cell samples were homogenized using RIPA (Thermo Fisher Scientific) buffer supplemented with protease and phosphatase inhibitor cocktails (Sigma). The amount of 30 μg of total protein was loaded in NuPAGE® Novex® 4-12% Bis-Tris precast gels (Life Technologies Corporation) or Mini-PROTEAN TGX Stain free gels 4-15% and ran at constant 120V for 1 hour and 20 min or 250 V for 40 min respectively. Proteins were transferred to μm Nitrocellulose or LF-PVDF membrane using Bio-Rad Trans-Blot® Turbo™ System (Bio-Rad Laboratories). ECL™ Plex Fluorescent Rainbow Markers (GE Healthcare) were used as the ladder for protein's molecular weight. […] A time course exposition was produced in each case to prevent quantification of saturated images. […]
molecule,measurement,setting,value
"CC/C=C\C[C@H](O)/C=C/C=C\C=C\C=C\[C@@H](O)[C@@H](O)C/C=C\CCC(=O)O [RvD1, 7S,8R,17S-trihydroxy-DHA]",UOS-dependent NFkB activation and apoptosis (FIG. 18B legend),ARPE-19 cells and hpRPE,counteracted these effects
"IL-1 β: cytokine that enhances COX-2 expression, used for comparison with Wnt5a",COX-2 promoter activation (luciferase),COX-2 promoter,growing staggered pattern of COX-2 promoter activation through at least 16 hours
O=C1NC(=NS(=O)(=O)c2cccc3ccccc23)S/C1=C\c1ccc(Br)cc1 [Pitstop2],NF-κB/p65 activation (luciferase),NF-κB/p65,decreases the activation of p65/NF-κB; also recorded: interferes with the activation of NF-κB/p65; also recorded: decreases the activation of p65/NFkB; also recorded: interferes with the activation of NFkB/p65
same,number of Wnt5a/FZD5 co-localized vesicles in the presence of Pitstop2,"Wnt5a/FZD5; 25 μM Pitstop2, control and UOS treated cells, rWnt5a added",prevented the increased in Wnt5a/FZD5 co-localized vesicles; also recorded: inhibition produced by Box5 was reverted
same,cellular Wnt5a (cWnt5a) abundance,Wnt5a; cells undergoing UOS+/−NPD1 and Pitstop2,did not modify cWnt5a abundance
same,secreted Wnt5a (sWnt5a) in medium,"Wnt5a; hpRPE cells under UOS, Pitstop2 added 2 hours before harvesting",reverted the effect of NPD1 on sWnt5a; also recorded: increase in secreted Wnt5a; also recorded: increase in sWnt5a
CC/C=C\C/C=C\C[C@H](O)\C=C/C=C/C=C/[C@H](O)C/C=C\CCC(=O)O [Maresin-1],UOS-dependent NFkB activation and apoptosis (FIG. 18B legend),ARPE-19 cells and hpRPE,counteracted these effects
"CC/C=C\C[C@H](O)[C@H](O)/C=C/C=C/C=C\C=C\[C@@H](O)C/C=C\CCC(=O)O [RvD2, 7S,16R,17S-trihydroxy-DHA]",UOS-dependent NFkB activation and apoptosis (FIG. 18B legend),ARPE-19 cells and hpRPE,counteracted these effects
"CCC=CCC(O)C=CC=CC=CC(O)CC=CCC=CCCC(=O)O (centres unmarked) [10R, 17R diHDHA]",UOS-dependent NFkB activation and apoptosis (FIG. 18B legend),ARPE-19 cells and hpRPE,counteracted these effects
same,number of Wnt5a/FZD5 colocalized vesicles per field,Wnt5a/FZD5,decreased the amount of vesicles per field
same,number of Wnt5a/FZD5 colocalized vesicles per field,"Wnt5a/FZD5; listed as NPD1 stereoisomer, of 10-R, 17R configuration",showed the same effect as NPD1
